According to patent US20250108038A1 (priority 2023, published 2025):
Where two headings read alike, the source gives them in different places.

Tests used:
[1] = tested on: Wistar rats; type: in vivo, Wistar rat; conditions: for % hit rate: nicotine 0.05-0.2 mg/kg sc, Compound I-4 0.1-3.0 mg/kg ip, Compound I-19 0.03-1.0 mg/kg ip; for % correct / Magazine Head Entries / Omissions / number of trials completed / perseverative responses / premature responses / response latencies (correct, incorrect) / reward latencies / timeout responses: same doses
Description: Animals were trained in eight automated 5C-SRTT operant chambers (Med Associates, St. Albans, VT, USA), controlled by MedPC software (Med Associates). Briefly, each operant chamber was equipped with 5 apertures containing a photocell beam to detect nose pokes and a lamp (2.8 W) that could be illuminated randomly at varying durations. Food pellets (45 mg chow pellet, BioServ, Frenchtown, NJ, USA) were delivered automatically to a magazine, located on the opposite wall to the nose pokes, that was also equipped with a light that turned on to indicate that a pellet had been dispensed. The house-light remained on for the entire session unless an error or omission occurred. Training sessions began with the delivery of a food reward and retrieval triggered the first trial. […] Training began with the stimulus duration set at 10 sec, a limited hold period of 5 sec and an ITI of 5 sec. […] Sessions ended when 40 minutes had lapsed or 100 trials had been completed.
Upon meeting the performance criteria, animals were assessed in the vSD version of the task where the following stimulus durations were presented in a pseudorandom manner: 0.3, 0.6 and 0.9 sec. Later, subjects were assessed in the vITI version where 2.5, 5.0 and 10.0 sec ITIs were employed in a pseudorandom manner. Performance parameters measured were: % hit ((# correct/(# correct+# incorrect including omissions))×100); % correct ((# correct/(# correct+# incorrect excluding omissions))×100); premature responses (# of nose-pokes into any aperture after trial initiation but before onset of the stimulus light); timeout responses (# of nose pokes into any aperture during a timeout period), perseverative responses (# of nose pokes occurring after the correct response had been made but before reward collection); # of food magazine head entries, omissions and total trials completed. The latency to correct response (time taken from the onset of the nose poke light stimulus to making the correct nose poke response), latency to incorrect response (time taken from onset of nose poke light stimulus to making the incorrect nose poke response), and latency to reward (i.e., the magazine latency, time taken from making a correct nose poke response to retrieving the reward from the magazine) was also recorded.
Drug doses and vehicle were administered in a pseudorandom fashion. Drug or vehicle sessions were performed 1-2 times per week with maintenance training (behavioral testing without drug or vehicle injections) interspersed.
All data were collated and entered into Microsoft Excel spreadsheets. The data were subsequently imported into StatView 5.0 for statistical analyses. One and two factor analysis of variance (ANOVA) tests were used with repeated measures when indicated, followed by Fisher LSD or Student Newman Keuls as post-hoc tests. All results were expressed as the mean (±S.E.M.). Differences between means from experimental groups were considered significant at the p<0.05 level. The statistical F values and degrees of freedom associated with the two factor ANOVA analyses are provided in the text of this report. Please refer to the statistical reports in the appendices for the values associated with one factor ANOVAs for the overall means and overall total values.

[2] = biological target: T1, MATE1 (Homo sapiens, UniProt Q96FL8); assay: Uptake transporter inhibition assay, MATE1 (metformin)
T1 sequence (Q96FL8 1-570): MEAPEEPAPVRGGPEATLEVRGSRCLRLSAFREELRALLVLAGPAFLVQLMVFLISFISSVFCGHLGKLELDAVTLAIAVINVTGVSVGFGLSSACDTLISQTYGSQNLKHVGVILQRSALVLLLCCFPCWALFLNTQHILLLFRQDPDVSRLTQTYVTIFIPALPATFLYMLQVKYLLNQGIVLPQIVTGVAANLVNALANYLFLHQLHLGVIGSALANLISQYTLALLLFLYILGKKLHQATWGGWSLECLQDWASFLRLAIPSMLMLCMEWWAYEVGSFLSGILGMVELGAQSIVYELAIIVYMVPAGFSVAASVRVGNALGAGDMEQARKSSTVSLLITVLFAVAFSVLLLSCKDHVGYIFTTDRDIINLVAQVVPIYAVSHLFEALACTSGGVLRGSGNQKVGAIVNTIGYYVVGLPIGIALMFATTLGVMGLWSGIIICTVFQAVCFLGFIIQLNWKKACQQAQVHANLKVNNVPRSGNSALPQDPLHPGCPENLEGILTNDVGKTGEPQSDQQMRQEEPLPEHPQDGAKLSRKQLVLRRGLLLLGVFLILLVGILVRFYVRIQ
Description: Uptake experiments were performed using HEK293 cells stably expressing the respective uptake transporters.
Cells were cultured at 37° C. in a humidified atmosphere containing 5% CO2 and were plated onto standard 96-well tissue culture plates.
Before the experiment, the medium was removed, and the cells were washed twice with 100 μL of pre-warmed (37° C.) assay buffer listed in Table 15. The cells were pre-incubated at 37° C. for 30 minutes in assay buffer containing the test article at appropriate concentrations (Table 16), appropriate solvents for solvent controls and the reference inhibitor for reference inhibitor wells. After the pre-incubation step solutions were removed. Uptake experiments were performed at 37° C. in 50 μL of assay buffer containing the probe substrate and the test article or solvent and controls.
After the experiment, cells were washed twice with 100 μL of appropriate cold buffer and lysed with 150 μL scintillation cocktail. Radiolabeled probe substrate transport was determined by liquid scintillation counting.
Uptake of the probe substrate in control cells provided background activity values for all data points.

[3] = 0.14 μM nominal, 0.08 μM NSB corrected, follow-up assay
[4] = 1.24 μM nominal, 0.79 μM NSB corrected, follow-up assay
[5] = 10.00 μM nominal, 6.50 μM NSB corrected
[6] = 11.11 μM nominal, 6.11 μM NSB corrected, follow-up assay
[7] = 33.33 μM nominal, 20.33 μM NSB corrected, follow-up assay
[8] = 100.00 μM nominal, 67.00 μM NSB corrected
[9] = 100.00 μM nominal, […] NSB corrected, follow-up assay
[10] = […] nominal, 2.37 μM NSB corrected, follow-up assay
[11] = 0.04 μM nominal, IC50 determination
[12] = 0.12 μM nominal, IC50 determination
[13] = 1.11 μM nominal, IC50 determination
[14] = 10.00 μM nominal, IC50 determination
[15] = 30.00 μM nominal, IC50 determination

COCCOC1(c2ccc(Cl)cc2)c2ccccc2C2=NCCN21 (stereo not shown) [Compound I-4]
% hit rate [1]: decrease in the % hit rate
% correct [1]: no statistically significant dose-related effects
Magazine Head Entries [1]: decreases in the number of premature responses, timeout responses, and magazine head entries
Omissions [1]: increase in the number of omissions
number of trials completed [1]: decreases in the number of trials completed
perseverative responses [1]: no statistically significant effects on perseverative responses
premature responses [1]: the higher 3 doses of Compound I-4 were associated with a decrease
response latencies (correct, incorrect) [1]: increases in the response latencies
reward latencies [1]: some increases in the reward latencies, but they were not statistically significant
timeout responses [1]: decreases in the number of premature responses, timeout responses, and magazine head entries

Clc1ccc(C2(OCC3OCCO3)c3ccccc3C3=NCCN32)cc1 (stereo not shown) [Compound I-19]
% hit rate [1]: dose-dependent decrease in the % hit rate
% correct [1]: no statistically significant dose-related effects
Magazine Head Entries [1]: decreased in a dose-dependent manner
Omissions [1]: increase in the number of omissions
number of trials completed [1]: decreases in the number of trials completed
perseverative responses [1]: very modest reduction in the number of perseverative responses
premature responses [1]: decrease in the number of premature responses
response latencies (correct, incorrect) [1]: very modest increases in the response latencies
reward latencies [1]: some increases in the reward latencies, but they were not statistically significant
timeout responses [1]: decrease in the number of premature responses, timeout responses, magazine head entries, and perseverative responses
Relative inhibition [2, 3]: 5%
Relative transporter specific accumulation [2, 3]: 95.19 ± 6.24 % of control
Transporter specific accumulation [2, 3]: 468.00 ± 24.27 cpm
Relative inhibition [2, 4]: 19%
Relative transporter specific accumulation [2, 4]: 81.36 ± 3.96 % of control
Transporter specific accumulation [2, 4]: 400.00 ± 11.06 cpm
Relative inhibition [2, 5]: 54%
Relative transporter specific accumulation [2, 5]: 45.62 ± 4.36 % of control
Transporter specific accumulation [2, 5]: 173.67 ± 6.31 cpm
Relative inhibition [2, 6]: 63%
Relative transporter specific accumulation [2, 6]: 37.02 ± 4.79 % of control
Transporter specific accumulation [2, 6]: 182.00 ± 22.40 cpm
Relative inhibition [2, 7]: 88%
Relative transporter specific accumulation [2, 7]: 11.73 ± 1.78 % of control
Transporter specific accumulation [2, 7]: 57.67 ± 8.46 cpm
Relative inhibition [2, 8]: 101%
Relative transporter specific accumulation [2, 8]: −1.49 ± 0.63 % of control
Transporter specific accumulation [2, 8]: −5.67 ± 2.36 cpm
Relative inhibition [2, 9]: 104%
Relative transporter specific accumulation [2, 9]: −4.47 ± 0.42 % of control
Transporter specific accumulation [2, 9]: −22.00 ± 1.89 cpm
maximum inhibition of MATE1-mediated metformin accumulation ([2]; 2-concentration assay, Compound I-19 100 μM, Compound A 30 μM, Compound B 50 μM): completely inhibited
Maximum % inhibition ([2]; MATE1, HEK293 cells, metformin (10 μM), NIO: no inhibition observed): 104%
Relative inhibition [2, 10]: 30%
Relative transporter specific accumulation [2, 10]: 70.03 ± 4.41 % of control
Transporter specific accumulation [2, 10]: 344.33 ± 16.76 cpm
IC50 ([2]; follow-up assay, NSB-corrected concentrations for Compound I-19): 8.86 µM

OC1(c2ccc(Cl)cc2)c2ccccc2C2=NCCN21 (stereo not shown) [Compound A, 5-(4-chlorophenyl)-2,3-dihydroimidazo[1,2-b]isoindol-5-ol, reference compound]
IC50 [2]: 3.87 µM
Relative transporter specific accumulation [2, 11]: 106.48 ± 4.34 % of control
Transporter specific accumulation [2, 11]: 471.00 ± 14.24 cpm
Relative transporter specific accumulation [2, 12]: 92.92 ± 5.23 % of control
Transporter specific accumulation [2, 12]: 411.00 ± 20.23 cpm
Relative transporter specific accumulation [2, 13]: 69.86 ± 2.64 % of control
Transporter specific accumulation [2, 13]: 309.00 ± 8.08 cpm
Relative transporter specific accumulation ([2]; 3.00 μM nominal): 54.89 ± 4.37 % of control
Transporter specific accumulation ([2]; 3.00 μM nominal): 181.33 ± 14.06 cpm
Relative transporter specific accumulation [2, 14]: 38.96 ± 1.63 % of control
Transporter specific accumulation [2, 14]: 172.33 ± 5.44 cpm
Relative transporter specific accumulation ([2]; 30.00 μM nominal): 20.18 ± 1.49 % of control
Transporter specific accumulation ([2]; 30.00 μM nominal): 66.67 ± 4.78 cpm
Relative transporter specific accumulation [2, 15]: 20.65 ± 0.69 % of control
Transporter specific accumulation [2, 15]: 91.33 ± 1.76 cpm
inhibition at 10 µM ([2]; human, Maximum % inhibition, MATE1, HEK293 cells, metformin (10 μM), NIO: no inhibition observed): 79%
inhibition at 0.04 μM ([2]; human, Relative inhibition, 0.04 μM nominal, IC50 determination): -6%
inhibition at 0.12 μM ([2]; human, Relative inhibition, 0.12 μM nominal, IC50 determination): 7%
inhibition at 1.11 μM ([2]; human, Relative inhibition, 1.11 μM nominal, IC50 determination): 30%
inhibition at 3 μM ([2]; human, Relative inhibition, 3.00 μM nominal): 45%
inhibition at 10 µM ([2]; human, Relative inhibition, 10.00 μM nominal, IC50 determination): 61%
inhibition at 30 μM ([2]; human, Relative inhibition, 30.00 μM nominal): 80%
inhibition at 30 μM ([2]; human, Relative inhibition, 30.00 μM nominal, IC50 determination): 79%
